Consider one compound from ChEMBL document CHEMBL1152778, “Design, synthesis, and biological evaluation of (2R,alphaS)-3,4-dihydro-2-[3-(1,1,2,2-tetrafluoroethoxy)phenyl]-5-[3-(trifluoromethoxy)-phenyl]-alpha-(trifluoromethyl)-1(2H)-quinolineethanol as potent and orally active cholesteryl ester transfer protein inhibitor” (J Med Chem, 2009).

As a reminder, the IC50 is the concentration at which inhibition is half-maximal. By AUC is commonly meant the area under the concentration-time curve, a measure of exposure. A word on the Tmax: it is the time at which the peak concentration occurs.

Series [1] addresses T1, Microsomal triglyceride transfer protein large subunit (Homo sapiens) (UniProt P55157).
T1 sequence (whole entry): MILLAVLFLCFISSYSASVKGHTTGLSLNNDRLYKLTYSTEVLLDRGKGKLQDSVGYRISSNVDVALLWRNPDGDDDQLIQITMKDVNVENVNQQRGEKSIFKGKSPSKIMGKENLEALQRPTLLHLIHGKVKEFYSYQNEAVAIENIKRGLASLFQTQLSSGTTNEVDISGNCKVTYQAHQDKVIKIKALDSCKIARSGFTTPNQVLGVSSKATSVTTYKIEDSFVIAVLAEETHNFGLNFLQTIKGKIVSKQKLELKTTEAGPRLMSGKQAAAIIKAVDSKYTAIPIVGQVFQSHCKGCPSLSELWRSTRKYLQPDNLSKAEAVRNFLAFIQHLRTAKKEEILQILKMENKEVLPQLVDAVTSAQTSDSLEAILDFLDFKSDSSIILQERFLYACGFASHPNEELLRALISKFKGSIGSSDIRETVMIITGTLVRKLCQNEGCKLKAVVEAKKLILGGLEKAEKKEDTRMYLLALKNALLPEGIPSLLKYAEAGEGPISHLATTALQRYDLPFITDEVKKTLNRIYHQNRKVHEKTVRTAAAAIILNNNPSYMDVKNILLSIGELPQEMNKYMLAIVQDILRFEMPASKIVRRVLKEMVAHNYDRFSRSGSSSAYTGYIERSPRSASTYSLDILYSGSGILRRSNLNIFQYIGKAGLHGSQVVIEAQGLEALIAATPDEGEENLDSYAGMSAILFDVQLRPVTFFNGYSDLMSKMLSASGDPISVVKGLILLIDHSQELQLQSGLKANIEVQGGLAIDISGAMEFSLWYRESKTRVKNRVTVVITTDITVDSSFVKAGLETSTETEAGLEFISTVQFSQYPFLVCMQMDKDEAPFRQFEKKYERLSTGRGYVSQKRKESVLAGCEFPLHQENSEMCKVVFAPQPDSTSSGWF
Nature of the series: Inhibition of microsomal triglyceride transfer protein by cell based assay.

In series [2] the test system is Cynomolgus monkey. Nature of the series: Increase in HDLC level in normal chow diet-fed cynomolgus monkey at 30 mg/kg, po for 5 days measured after 10 hrs of last dose. In kind it is functional, Macaca fascicularis.
Series [3] in a line: Inhibition of CETP-mediated transfer of cholesteryl ester to LDL/VLDL in rabbit plasma by Roar assay. It counts as cell-free. As to conditions: Oryctolagus cuniculus.
Series [4] is described as follows: Clearance in rat at 2 to 3 mg/kg, iv and 10 mg/kg, po. In kind it is ADME, organism-based. The following applies: in vivo.
Series [5] concerns the target Phospholipid transfer protein (Homo sapiens) (UniProt P55058). The series can be described thus: Inhibition of PLTP activity assessed as phosphatidylcholine transferred from [3H]phosphatidylcholine (dipalmitoyl)-labeled liposomes to HDL by cell based liquid scintillation counter.
Series [6] can be described thus: AUC in rat at 2 to 3 mg/kg, iv and 10 mg/kg, po. In kind it is ADME, organism-based. As to conditions: plasma.
Series [7] has as its system Mus musculus. Nature of the series: Increase in HDLC level in normal chow diet-fed human CETP transgenic mouse model at 30 mg/kg, po for 5 days measured after 2 hrs of last dose. It counts as functional.
Series [8] deals with Cynomolgus monkey. Nature of the series: Ex vivo inhibition of CETP in po dosed normal chow diet-fed cynomolgus monkey by Roar assay. In kind it is functional, organism-based. As to conditions: Macaca fascicularis.
Series [9] has as its target T2, Cholesteryl ester transfer protein (Homo sapiens, UniProt P11597).
T2 sequence (P11597 whole entry): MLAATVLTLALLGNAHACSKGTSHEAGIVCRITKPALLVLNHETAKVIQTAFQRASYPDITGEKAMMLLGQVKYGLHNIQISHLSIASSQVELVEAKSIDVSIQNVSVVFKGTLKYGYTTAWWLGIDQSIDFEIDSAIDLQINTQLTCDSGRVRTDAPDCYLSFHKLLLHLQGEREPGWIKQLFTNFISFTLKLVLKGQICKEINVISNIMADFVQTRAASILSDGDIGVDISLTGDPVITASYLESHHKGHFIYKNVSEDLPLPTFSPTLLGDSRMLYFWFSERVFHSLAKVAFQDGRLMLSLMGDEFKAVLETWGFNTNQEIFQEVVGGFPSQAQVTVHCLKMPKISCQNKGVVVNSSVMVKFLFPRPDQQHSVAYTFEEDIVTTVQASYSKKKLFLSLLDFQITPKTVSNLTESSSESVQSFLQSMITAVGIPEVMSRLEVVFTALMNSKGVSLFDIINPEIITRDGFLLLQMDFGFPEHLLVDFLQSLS
Nature of the series: Inhibition of human plasma-derived CETP activity by scintillation proximity assay. In kind it is cell-free.

The test system of series [10] is Mus musculus. Nature of the series: Increase in HDLC level in normal chow diet-fed human CETP transgenic mouse model at 10 mg/kg, po for 5 days measured after 2 hrs of last dose. In kind it is functional.
The target in series [11] is T3, Endothelial lipase (Homo sapiens) (UniProt Q9Y5X9).
T3 sequence (whole entry): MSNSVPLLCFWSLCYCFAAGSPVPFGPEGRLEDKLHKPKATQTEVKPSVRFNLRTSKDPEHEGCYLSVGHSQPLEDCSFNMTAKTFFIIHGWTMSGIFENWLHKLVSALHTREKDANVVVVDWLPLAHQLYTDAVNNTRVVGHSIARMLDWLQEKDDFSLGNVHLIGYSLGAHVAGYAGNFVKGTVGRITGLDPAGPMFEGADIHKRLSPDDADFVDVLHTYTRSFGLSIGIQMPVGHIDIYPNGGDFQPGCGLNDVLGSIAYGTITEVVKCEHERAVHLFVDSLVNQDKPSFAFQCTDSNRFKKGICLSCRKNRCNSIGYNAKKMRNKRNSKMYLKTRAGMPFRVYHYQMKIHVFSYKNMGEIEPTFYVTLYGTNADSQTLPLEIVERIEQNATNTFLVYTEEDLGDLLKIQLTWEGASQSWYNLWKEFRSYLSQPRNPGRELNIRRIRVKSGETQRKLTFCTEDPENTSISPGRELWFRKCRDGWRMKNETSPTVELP
The series can be described thus: Inhibition of endothelial lipase by cell based assay.

In series [12] the test system is Cynomolgus monkey. Nature of the series: Increase in HDLC level in po dosed normal chow diet-fed cynomolgus monkey. In kind it is functional, organism-based. As to conditions: Macaca fascicularis.
The test system of series [13] is Mus musculus. Nature of the series: Increase in HDLC level in po dosed normal chow diet-fed human CETP transgenic mouse model. In kind it is functional, organism-based.
Series [14] can be described thus: Volume of distribution at steady state in rat at 2 to 3 mg/kg, iv and 10 mg/kg, po. It counts as ADME, organism-based. The following applies: in vivo, read-out: Vdss.
The target in series [15] is T2, Cholesteryl ester transfer protein. Nature of the series: Inhibition of CETP-mediated transfer of [3H]cholesteryl ester from HDL in human plasma after 18 hrs. It counts as cell-free.
The nature of series [16]: Tmax in rat at 2 to 3 mg/kg, iv and 10 mg/kg, po. It counts as ADME, organism-based. As to conditions: in vivo.
The nature of series [17]: Plasma concentration in normal chow diet-fed cynomolgus monkey at 10 mg/kg, po for 5 days. Further details: dose 10 mg/kg, route oral. It counts as ADME, organism-based, Macaca fascicularis.
Series [18] concerns Hamster. Nature of the series: Increase in HDLC to LDLC ratio in high-fat fed hamster model at 3 to 30 mg/kg, po for 5 days measured after 2 hrs of last dose. It counts as functional, Cricetinae. As to conditions: dose mg/kg 3-30.
The nature of series [19]: Inhibition of CETP-mediated transfer of cholesteryl ester to LDL/VLDL in hamster plasma by Roar assay. It counts as cell-free. As to conditions: Cricetinae.

Structures are written as SMILES. Activity calls are given as the source filed them. The rule behind the calls is not given here.

Chain of Phospholipid transfer protein (Homo sapiens) (P55058 whole entry): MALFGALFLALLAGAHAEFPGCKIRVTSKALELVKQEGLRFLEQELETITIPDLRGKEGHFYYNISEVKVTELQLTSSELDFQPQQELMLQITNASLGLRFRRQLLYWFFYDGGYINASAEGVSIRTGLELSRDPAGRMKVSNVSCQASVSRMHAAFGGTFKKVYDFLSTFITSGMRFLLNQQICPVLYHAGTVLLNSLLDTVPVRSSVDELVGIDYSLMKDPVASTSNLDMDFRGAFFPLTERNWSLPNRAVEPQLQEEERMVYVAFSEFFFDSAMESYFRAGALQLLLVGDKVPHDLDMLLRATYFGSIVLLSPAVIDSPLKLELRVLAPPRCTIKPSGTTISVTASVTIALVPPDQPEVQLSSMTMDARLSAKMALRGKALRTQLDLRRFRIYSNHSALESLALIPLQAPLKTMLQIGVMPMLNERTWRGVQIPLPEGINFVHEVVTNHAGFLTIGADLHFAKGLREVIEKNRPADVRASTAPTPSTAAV

As for `O[C@@H](CN1c2cccc(-c3cccc(OC(F)(F)F)c3)c2CC[C@@H]1c1cccc(OC(F)(F)C(F)F)c1)C(F)(F)F`, the result in series [1], in series [5] and in series [11] was inactive. In addition, the Activity is 32% in series [2]; 25% in series [7]; “Dose-dependent effect” in series [8]; 36% in series [10]; “Dose-dependent effect” in series [12]; “Dose-dependent effect” in [13]. Also, the Activity in [18] is given as 4.6. The IC50 was 3500 nM in series [3], 39 nM in series [9], 200 nM in series [15] and 100 nM in series [19]. The same compound yielded a clearance in series [4] of 1.8 mL/min/kg. For the same compound, the AUC in series [6] is 31300 ng·h/mL. Moreover, the Vd in series [14] turned out to be 0.36 L/kg. In addition, in series [16], the Tmax stood at 6 h. The compound further returned a concentration at 120 h in [17] of 2700 nM.
